Data on one substance can be found in patent US20200206198A1, “CFTR CHANNEL ACTIVATOR FOR USE IN THE TREATMENT AND/OR PREVENTION OF GLUTEN SENSITIVITY CONDITIONS” (priority 2017, published 2020).

The test system of one experiment is TG2 / NBD1. As to the kind of experiment: Cell-free system with recombinant TG2, NBD1 and synthetic peptide (native PAGE). Type of experiment: biochemical. Conditions: Ca2+-activated TG2. As to the method:
FIG. 5: a, Immunoprecipitation of TG2 protein 15 in Caco-2 cells challenged with P57-68, PGAV or P31-43 and blotted with HRP-streptavidin. b, Immunoprecipitation of CFTR protein in Caco-2 cells challenged with P31-43 in the presence of absence of the TG2 inhibitor ZDON or TG2 RNA silencing and 20 blotted with anti-isopeptide glutamime-lysine and anti-TG2 antibodies. c, Recombinant TG2 and/or NBD1 incubated in vitro with P31-43 and solved in native page in the presence or absence of Ca2+. d, Immunoprecipitation of CFTR protein and immunblot with anti-CFTR antibodies or anti-TG2 antibodies. e, Immunoprecipitation of CFTR protein and immunoblot with anti-TG2 or anti-CFTR antibodies; effects of ZDON and BAPTA-AM. f, In situ detection of TG2 activity in Caco-2 cells pulsed with Ca2+ in the presence or absence of VX-770 or Z-DON. Activity assay by immunoblotting of the TG-catalyzed incorporation of 5-biotinamidopentylamine (BAP) and blotting with anti-biotin antibody. g, In situ TG2 activity assay, by immunostaining of the TG-catalysed incorporation of monodansylcadaverin, on Caco-2 cells pre-incubated with VX-770 or Z-DON and then pulsed with P31-43. Scale bar 50 μm. h, Immunoprecipitation of PKAr2a protein and immunoblot with isopeptide glutamime-lysine antibody in Caco-2 cells challenged with P57-68 or P31-43 in the absence or presence of VX-770. (i,j). […]

The test system of experiment [1] is recombinant human NBD1 (rhNBD1). The experiment in a line: Surface plasmon resonance peptide-protein interaction. Format: binding. As to the method: Peptide-protein interactions were studied using a Biacore™ T100 (GE Healthcare) instrument. hrNBD1 domain or the indicated biotinylated peptides were immobilized by thiol coupling on a CMS (series S) sensor chip to a final density of 2000 resonance units (RU) or by biotin-streptavidin capture on a SA (series S) sensor chip to a final density of 250 RU, respectively. A flow cell with no immobilized protein or peptide was used as control. Binding analysis was carried out at 20° C. in a running buffer consisting of 10 mM HEPES, pH 7.4, 150 mM NaCl, 0.05% (v/v) Tween-20, 2 mM ATP, 5 mM MgCl2, 1 mM DTT applying a flow rate of 20 μl/min. For each experiment a Biacore™ method program was used. It included a series of three start up injections (running buffer), zero control (running buffer) and different concentrations of ligand. […] Each sensorgram (time-course of the surface plasmon resonance signal) was corrected for the response obtained in the control flow cell and normalized to baseline. Data were analysed using the 2.0.3 BIAevaluation software (GE Healthcare). At least three independent experiments for each analysis were performed.
FIG. 2: a, Protein-Protein docking and Molecular Dynamics of P31-43 (violet) bound to NBD1 (orange). Left side: general view of P31-43 and NBD1 interaction. Upper right: detailed interaction pattern, highlighting the most important amino acids. Lower right: in silico NBD1/P31-43 complex compared to the original crystallographic positions of Tip 401 and ATP. b, Graphical view of the in silico sampling percentage of P31-43 against NBD1/NBD2 (left 10 panel), and of P31-43/4QA (4QA) against NBD1 (right panel). c-d, Surface plasmon resonance (SPR) analysis of rhNBD1 binding to P31-43 and P57-68 biotinylated peptides immobilized on SA sensor chip (c) and of increasing concentrations of P31-43 and P57-68 peptides 15 on rhNBD1 covalently bound to the CMS sensor chip (d).
In general terms: SPR reads the build-up and loss of mass on a sensor chip optically.

Experiment [2] relates to rhNBD1 and its double mutants F400A/E403A and P439A/P477A. The experiment in a line: Native polyacrylamide electrophoresis (BN-PAGE) of biotinylated peptide with rhNBD1. Type of experiment: binding, human. As to the method: Peptide-protein interactions were further studied exploiting a different biochemical strategy: recombinant NBD1, both wild type and/or its mutants, were incubated at 4° C. for 30′ in 40 mM Tris pH 7.5 in the presence of the biotinylated P31-43 peptide unless otherwise indicated and resolved in native conditions by BN-PAGE (Novex, Invitrogen). The complexes were then blotted onto PVDF membrane in accordance with the manufacturer's instructions and the interacting partners were detected with streptavidin-HRP antibody (PerkinElmer).
e-f, Blue native PAGE western blotting of P31-43 and P57-68 biotinylated peptides in the presence of rhNBD1 (e), and of WT and double NBD1 mutants in the presence of biotinylated P31-43 (0. g, SPR analysis of 4QA peptide on rhNBD1 covalently bound to CMS sensor chip. h-i, treatment of Caco-2 cells with P31-43 or P31-43 modified in different Q or P positions. (h) Assessment in Ussing chambers of CFTR-dependent Cl^− secretion measured by forskolin-induced (Fsk) increase of the chloride current (Isc (μA/cm^2); quantification of the peak CFTR Inhibitor 172 (CFTRinh172)-sensitive Isc (ΔIsc). (i) Assessment of iodide efflux by SPQ fluorescent probe upon stimulation with forskolin (Fsk) expressed as percentage of CFTR function in the presence or absence of peptide challenge. […]

As to “α-gliadin peptide LGQQQPFPPQQPY (SEQ ID 1), induces an enterocyte stress response (P31-43 sequence of alpha-gliadin)”, the “TG2-catalyzed covalent interaction with NBD1” value in the experiment with TG2 / NBD1 was “Ca2+-activated TG2 catalyzed covalent interactions between P31-43 and NBD1”. For the same substance, in experiment [1] (SPR, peptide immobilized on sensor chip), the “interaction with rhNBD1 in the flow phase” value was “confirmed the predicted interaction”. Besides, the “SPR signal on immobilized rhNBD1” value in experiment [1] (rhNBD1 immobilized on chip, different peptide concentrations) is “yielded a dose-dependent signal”. Further, in experiment [2], the “binding to native rhNBD1” value is reported as “bound to rhNBD1”; the “binding to rhNBD1 double mutants F400A/E403A and P439A/P477A” value is given as “attenuated for both rhNBD1 mutants”.
